Calls of active or inactive are those of the source. The rule behind the calls is not given here.
Columns and labels:
[1] = Inhibition of metallo-betalactamase L1 using penicillin G as substrate up to 1 mM and pH 7
[2] = Inhibition of metallo-betalactamase CCrA using penicillin G as substrate up to 1 mM and pH 7
[3] = target: T1, D-alanyl-D-alanine dipeptidase (Enterococcus faecium) (UniProt Q06241); assay: Inhibition of Enterococcus faecium VanX overexpressed in Escherichia coli BL21 (DE3) cells using D-ala-D-ala as substrate up to 5 mM preincubated for 30 mins measured after 150 secs by modified Cd-ninhydrin method
T1 sequence (whole entry): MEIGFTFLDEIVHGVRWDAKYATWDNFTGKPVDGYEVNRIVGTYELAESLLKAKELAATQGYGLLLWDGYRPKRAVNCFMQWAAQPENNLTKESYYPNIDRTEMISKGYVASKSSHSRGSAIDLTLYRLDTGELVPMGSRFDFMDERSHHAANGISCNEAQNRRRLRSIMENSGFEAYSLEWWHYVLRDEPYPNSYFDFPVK

[4] = Inhibition of metallo-betalactamase ImiS using penicillin G as substrate up to 1 mM and pH 7
[5] = target: T2, D-alanyl-D-alanine dipeptidase (Enterococcus faecium, UniProt Q06241); assay: Inhibition of Enterococcus faecium VanX overexpressed in Escherichia coli BL21 (DE3) cells using D-ala-D-ala as substrate preincubated for 30 mins measured after 150 secs by modified Cd-ninhydrin method
T2 sequence (Q06241 whole entry): T1 sequence (whole entry)

[6] = target: T2, D-alanyl-D-alanine dipeptidase; assay: Competitive inhibition of Enterococcus faecium VanX overexpressed in Escherichia coli BL21 (DE3) cells using D-ala-D-ala as substrate preincubated for 3 mins measured after 150 secs by modified Cd-ninhydrin method

Structure (SMILES) | inhibition [1] | inhibition [2] | inhibition [3] | inhibition [4] | IC50 [5] [µM] | IC50 [6] [µM]
C[C@H](N)P(=O)(O)O[C@H](CCC(=O)O)C(=O)O | inactive | inactive | inactive | inactive | – | –
C[C@H](N)P(=O)(O)O[C@H](Cc1ccccc1)C(=O)O | inactive | inactive | – | inactive | 8210 | –
C[C@H](N)P(=O)(O)O[C@H](C)C(=O)O | inactive | inactive | – | inactive | – | 760
CC[C@H](C)[C@@H](OP(=O)(O)[C@H](C)N)C(=O)O | inactive | inactive | – | inactive | 1310 | –
CC(C)C[C@@H](OP(=O)(O)[C@H](C)N)C(=O)O | inactive | inactive | – | inactive | 1080 | –
C[C@H](N)P(=O)(O)OCC(=O)O | inactive | inactive | – | inactive | 480 | –
CC(C)[C@@H](OP(=O)(O)[C@H](C)N)C(=O)O | inactive | inactive | – | inactive | 2820 | –

Source: ChEMBL document CHEMBL1938304, “Synthesis, characterization and activity of new phosphonate dipeptides as potential inhibitors of VanX” (Bioorg Med Chem Lett, 2012)
